Active and inactive are the calls of the source.

The target of experiment [1] is T1, Alkaline phosphatase, tissue-nonspecific isozyme (Homo sapiens, UniProt P05186).
T1 sequence (P05186 whole entry): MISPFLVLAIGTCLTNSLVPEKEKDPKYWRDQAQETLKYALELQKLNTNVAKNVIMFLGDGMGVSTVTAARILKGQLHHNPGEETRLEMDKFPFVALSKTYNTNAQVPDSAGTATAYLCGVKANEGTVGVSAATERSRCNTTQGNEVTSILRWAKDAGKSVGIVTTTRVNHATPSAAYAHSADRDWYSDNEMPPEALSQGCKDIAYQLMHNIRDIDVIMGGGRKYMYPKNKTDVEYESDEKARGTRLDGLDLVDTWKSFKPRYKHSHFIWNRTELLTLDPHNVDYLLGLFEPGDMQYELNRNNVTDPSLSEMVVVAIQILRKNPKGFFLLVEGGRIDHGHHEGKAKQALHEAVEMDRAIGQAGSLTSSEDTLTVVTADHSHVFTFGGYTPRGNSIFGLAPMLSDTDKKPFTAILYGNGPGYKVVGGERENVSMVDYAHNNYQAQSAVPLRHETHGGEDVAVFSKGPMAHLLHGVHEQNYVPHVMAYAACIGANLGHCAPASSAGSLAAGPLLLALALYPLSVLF
Nature of the experiment: activation of tissue-nonspecific alkaline phosphatase – biochemical, TNAP isozyme, mouse IAP uHTS hits, selectivity assay for mouse IAP activator project, dose response (AID 488880). It counts as functional.

Experiment [2] deals with Dual specificity protein phosphatase 3 (Homo sapiens, UniProt P51452). Kind of experiment: VHR1 phosphatase inhibitors, primary screen, biochemical, absorbance, uHTS (AID 1654).
Sequence of Dual specificity protein phosphatase 3 (P51452 whole entry): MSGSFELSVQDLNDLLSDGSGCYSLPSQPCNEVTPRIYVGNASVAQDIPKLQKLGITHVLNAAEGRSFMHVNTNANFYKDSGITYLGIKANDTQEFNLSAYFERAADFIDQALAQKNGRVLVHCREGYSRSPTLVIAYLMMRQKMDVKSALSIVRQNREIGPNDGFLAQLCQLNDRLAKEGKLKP
A short description of experiment [3]: Counterscreen for antagonists of the orexin 1 receptor (OX1R; HCRTR1): Fluorescence-based cell-based high throughput dose response assay to identify antagonists of the parental CHO cell line. [Related pubchem assays (depositor defined):AID434989, AID435008, AID463079, AID485270, AID492963, AID492964, AID492965, AID493232, AID504699, AID504701]. It counts as functional.

Experiment [4] has as its target Dual specificity protein kinase CLK2 (Homo sapiens, UniProt P49760). The format is functional.
Experiment [5] deals with Homeodomain-interacting protein kinase 4 (Homo sapiens, UniProt Q8NE63). It counts as functional.
Sequence of Homeodomain-interacting protein kinase 4 (Q8NE63 whole entry): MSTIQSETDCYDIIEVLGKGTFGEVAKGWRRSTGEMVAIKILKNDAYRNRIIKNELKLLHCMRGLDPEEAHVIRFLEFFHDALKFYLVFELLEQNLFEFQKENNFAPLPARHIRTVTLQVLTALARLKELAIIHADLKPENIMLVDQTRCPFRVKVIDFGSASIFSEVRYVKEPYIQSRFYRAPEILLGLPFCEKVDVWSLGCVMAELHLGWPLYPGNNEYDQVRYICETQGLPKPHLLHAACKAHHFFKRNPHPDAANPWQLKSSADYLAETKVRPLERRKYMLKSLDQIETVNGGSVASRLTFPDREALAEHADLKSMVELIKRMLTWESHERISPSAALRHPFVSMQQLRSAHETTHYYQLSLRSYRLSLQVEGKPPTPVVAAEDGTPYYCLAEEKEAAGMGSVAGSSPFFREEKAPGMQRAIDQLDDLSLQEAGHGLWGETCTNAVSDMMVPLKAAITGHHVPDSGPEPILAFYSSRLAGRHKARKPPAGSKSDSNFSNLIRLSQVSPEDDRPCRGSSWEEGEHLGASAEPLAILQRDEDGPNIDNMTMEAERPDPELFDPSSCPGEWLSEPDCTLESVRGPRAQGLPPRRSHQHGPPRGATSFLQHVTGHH
In the next experiment the target is Ephrin type-A receptor 2 (Homo sapiens, UniProt P29317). It counts as functional.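 Further: EPHA2 tested as one member of a kinome-wide kinase panel.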
Sequence of Ephrin type-A receptor 2 (P29317 whole entry): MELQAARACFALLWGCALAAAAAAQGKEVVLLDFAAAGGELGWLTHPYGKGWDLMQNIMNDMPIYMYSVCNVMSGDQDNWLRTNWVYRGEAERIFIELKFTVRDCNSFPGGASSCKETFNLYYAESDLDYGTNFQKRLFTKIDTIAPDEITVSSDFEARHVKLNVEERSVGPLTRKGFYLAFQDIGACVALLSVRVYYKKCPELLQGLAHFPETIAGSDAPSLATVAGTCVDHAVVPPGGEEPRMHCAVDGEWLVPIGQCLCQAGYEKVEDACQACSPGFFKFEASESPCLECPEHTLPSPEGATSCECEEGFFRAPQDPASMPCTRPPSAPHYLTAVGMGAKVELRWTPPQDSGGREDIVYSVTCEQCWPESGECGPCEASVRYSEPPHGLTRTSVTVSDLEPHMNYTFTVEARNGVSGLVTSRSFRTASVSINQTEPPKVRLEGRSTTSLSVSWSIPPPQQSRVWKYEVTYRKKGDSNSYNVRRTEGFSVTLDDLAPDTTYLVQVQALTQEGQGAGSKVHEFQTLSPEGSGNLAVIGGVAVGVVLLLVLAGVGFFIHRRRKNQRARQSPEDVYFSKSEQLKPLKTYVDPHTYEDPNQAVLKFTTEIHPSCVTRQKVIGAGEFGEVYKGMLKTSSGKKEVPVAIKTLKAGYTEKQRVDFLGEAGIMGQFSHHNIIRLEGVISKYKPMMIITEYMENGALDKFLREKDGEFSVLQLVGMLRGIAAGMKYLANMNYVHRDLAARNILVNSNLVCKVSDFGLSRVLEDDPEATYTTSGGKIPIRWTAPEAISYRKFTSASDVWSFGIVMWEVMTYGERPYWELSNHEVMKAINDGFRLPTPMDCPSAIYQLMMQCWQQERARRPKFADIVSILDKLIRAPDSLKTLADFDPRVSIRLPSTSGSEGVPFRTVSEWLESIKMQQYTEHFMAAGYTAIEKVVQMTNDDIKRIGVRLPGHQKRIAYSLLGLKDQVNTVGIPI
The target of experiment [6] is cAMP-dependent protein kinase catalytic subunit alpha (Homo sapiens, UniProt P17612). It counts as functional.
For experiment [7], the target named is Cyclin-dependent kinase 5 (Homo sapiens, UniProt Q00535). It counts as functional.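 Further: CDK5 measured as one member of a kinase profiling panel.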
Sequence of Cyclin-dependent kinase 5 (Q00535 whole entry): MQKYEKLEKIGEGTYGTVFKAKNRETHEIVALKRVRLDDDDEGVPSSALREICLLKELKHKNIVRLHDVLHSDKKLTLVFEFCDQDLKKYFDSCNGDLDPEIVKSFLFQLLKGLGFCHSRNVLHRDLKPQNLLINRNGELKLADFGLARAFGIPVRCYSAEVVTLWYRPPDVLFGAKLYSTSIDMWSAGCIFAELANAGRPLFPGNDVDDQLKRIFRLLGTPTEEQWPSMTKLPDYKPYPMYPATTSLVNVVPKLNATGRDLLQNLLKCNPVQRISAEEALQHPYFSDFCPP
In experiment [8] the target is Dual specificity tyrosine-phosphorylation-regulated kinase 3 (Homo sapiens, UniProt O43781). It counts as functional.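 Further: measured as one member of a broad kinase panel.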
Sequence of Dual specificity tyrosine-phosphorylation-regulated kinase 3 (O43781 whole entry): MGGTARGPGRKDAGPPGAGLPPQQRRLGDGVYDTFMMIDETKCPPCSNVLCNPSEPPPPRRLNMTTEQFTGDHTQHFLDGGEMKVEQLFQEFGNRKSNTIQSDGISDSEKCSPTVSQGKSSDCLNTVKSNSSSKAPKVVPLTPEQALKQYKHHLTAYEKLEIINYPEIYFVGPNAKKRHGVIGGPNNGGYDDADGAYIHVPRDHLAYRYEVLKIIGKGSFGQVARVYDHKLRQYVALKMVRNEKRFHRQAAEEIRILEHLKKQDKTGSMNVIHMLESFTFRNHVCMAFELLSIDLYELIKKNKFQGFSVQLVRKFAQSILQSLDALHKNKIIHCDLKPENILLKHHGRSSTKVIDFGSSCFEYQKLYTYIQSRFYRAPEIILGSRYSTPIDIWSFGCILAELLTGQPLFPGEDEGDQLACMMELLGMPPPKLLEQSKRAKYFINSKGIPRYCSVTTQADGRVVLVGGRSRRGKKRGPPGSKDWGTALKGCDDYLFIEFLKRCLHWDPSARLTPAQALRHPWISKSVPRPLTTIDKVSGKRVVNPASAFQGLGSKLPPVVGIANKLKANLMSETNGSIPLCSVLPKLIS
Experiment [9] addresses Tyrosine-protein kinase SYK (Homo sapiens, UniProt P43405). It counts as functional.
In experiment [10] the target is Serine/threonine-protein kinase PAK 1 (Homo sapiens, UniProt Q13153). It counts as functional.
Sequence of Serine/threonine-protein kinase PAK 1 (Q13153 whole entry): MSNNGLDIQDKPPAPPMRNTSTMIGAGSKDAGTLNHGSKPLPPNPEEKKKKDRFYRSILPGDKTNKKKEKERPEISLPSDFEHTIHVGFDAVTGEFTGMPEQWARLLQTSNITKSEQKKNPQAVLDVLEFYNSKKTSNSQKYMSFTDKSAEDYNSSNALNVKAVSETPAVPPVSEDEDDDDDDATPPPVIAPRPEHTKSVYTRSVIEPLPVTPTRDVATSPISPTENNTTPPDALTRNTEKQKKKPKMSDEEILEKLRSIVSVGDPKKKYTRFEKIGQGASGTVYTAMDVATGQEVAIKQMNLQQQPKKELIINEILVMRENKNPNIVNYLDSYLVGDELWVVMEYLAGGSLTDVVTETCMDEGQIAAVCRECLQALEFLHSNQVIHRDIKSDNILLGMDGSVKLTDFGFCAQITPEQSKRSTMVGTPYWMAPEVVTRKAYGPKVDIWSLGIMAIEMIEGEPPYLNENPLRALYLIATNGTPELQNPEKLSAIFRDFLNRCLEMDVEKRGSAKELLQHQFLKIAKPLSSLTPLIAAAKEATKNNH
In another experiment the target is Focal adhesion kinase 1 (Homo sapiens, UniProt Q05397). The format is functional.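 Further: measured as one member of a kinome panel.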
For experiment [11], the target named is Mitogen-activated protein kinase 1 (Homo sapiens, UniProt P28482). It counts as functional.
Sequence of Mitogen-activated protein kinase 1 (P28482 whole entry): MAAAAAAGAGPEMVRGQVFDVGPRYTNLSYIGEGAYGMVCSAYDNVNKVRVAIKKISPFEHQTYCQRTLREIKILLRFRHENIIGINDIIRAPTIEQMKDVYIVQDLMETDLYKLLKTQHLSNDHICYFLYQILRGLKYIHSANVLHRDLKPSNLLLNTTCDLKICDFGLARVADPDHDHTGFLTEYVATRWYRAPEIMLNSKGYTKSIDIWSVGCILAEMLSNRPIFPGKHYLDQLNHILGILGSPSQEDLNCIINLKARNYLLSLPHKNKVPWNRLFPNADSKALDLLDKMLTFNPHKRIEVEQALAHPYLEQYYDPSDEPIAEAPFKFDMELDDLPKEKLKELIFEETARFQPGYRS
The target in experiment [12] is Rho-associated protein kinase 1 (Homo sapiens, UniProt Q13464). The format is functional.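 Further: measured within a broad kinome-wide panel profiling many kinases.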
Experiment [13] has as its target Vascular endothelial growth factor receptor 3 (Homo sapiens, UniProt P35916). It counts as functional.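 Further: value from a kinome-wide profiling panel, with FLT4 as the panel member.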
Experiment [14] concerns the target Ribosomal protein S6 kinase beta-1 (Homo sapiens, UniProt P23443). The format is functional.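 Further: measured as one member of a kinome-wide profiling panel.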
Experiment [15] deals with Death-associated protein kinase 3 (Homo sapiens, UniProt O43293). The format is functional.
Sequence of Death-associated protein kinase 3 (O43293 whole entry): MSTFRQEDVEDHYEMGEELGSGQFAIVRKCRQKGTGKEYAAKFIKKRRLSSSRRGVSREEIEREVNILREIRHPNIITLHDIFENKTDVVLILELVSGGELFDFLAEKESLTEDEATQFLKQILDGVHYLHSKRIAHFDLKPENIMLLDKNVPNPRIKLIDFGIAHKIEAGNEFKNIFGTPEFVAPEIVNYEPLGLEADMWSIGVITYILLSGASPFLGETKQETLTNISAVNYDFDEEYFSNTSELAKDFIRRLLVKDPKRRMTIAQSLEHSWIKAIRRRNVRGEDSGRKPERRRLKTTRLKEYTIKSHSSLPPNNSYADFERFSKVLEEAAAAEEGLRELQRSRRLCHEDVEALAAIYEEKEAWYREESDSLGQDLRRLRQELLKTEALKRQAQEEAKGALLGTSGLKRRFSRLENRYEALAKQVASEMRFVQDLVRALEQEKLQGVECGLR
A further experiment concerns the target Activated CDC42 kinase 1 (Homo sapiens, UniProt Q07912). Kind of experiment: Navigating the Kinome. Panel member name: ACK1. It counts as functional.
The target in experiment [16] is Cyclin-dependent kinase 9 (Homo sapiens, UniProt P50750). It counts as functional.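 Further: value from the CDK9 entry of a kinome-spanning kinase panel.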
Sequence of Cyclin-dependent kinase 9 (P50750 whole entry): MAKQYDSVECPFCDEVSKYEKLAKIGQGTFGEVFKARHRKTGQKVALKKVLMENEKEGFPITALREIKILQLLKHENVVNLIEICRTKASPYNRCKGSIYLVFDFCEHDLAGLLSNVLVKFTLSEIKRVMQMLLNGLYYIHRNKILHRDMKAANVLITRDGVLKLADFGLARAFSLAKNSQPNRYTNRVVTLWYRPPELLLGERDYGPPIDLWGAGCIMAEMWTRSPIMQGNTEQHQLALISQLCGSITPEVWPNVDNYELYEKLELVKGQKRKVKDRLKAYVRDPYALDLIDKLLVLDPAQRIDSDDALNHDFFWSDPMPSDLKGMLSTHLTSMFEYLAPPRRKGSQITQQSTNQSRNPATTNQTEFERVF
The nature of experiment [17]: viability of PTEN-deleted HCT116 cells – cell-based, HCT116 PTEN knockout, dose response (AID 1047).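 Further: HCT116 colon tumor cells with PTEN knocked out; cells exposed to compound for 60 hours before readout; potency for loss of cell viability measured by luminescence.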 The format is functional.
Experiment [18] addresses T2, Heat shock factor protein 1 (Mus musculus, UniProt P38532).
T2 sequence (P38532 whole entry): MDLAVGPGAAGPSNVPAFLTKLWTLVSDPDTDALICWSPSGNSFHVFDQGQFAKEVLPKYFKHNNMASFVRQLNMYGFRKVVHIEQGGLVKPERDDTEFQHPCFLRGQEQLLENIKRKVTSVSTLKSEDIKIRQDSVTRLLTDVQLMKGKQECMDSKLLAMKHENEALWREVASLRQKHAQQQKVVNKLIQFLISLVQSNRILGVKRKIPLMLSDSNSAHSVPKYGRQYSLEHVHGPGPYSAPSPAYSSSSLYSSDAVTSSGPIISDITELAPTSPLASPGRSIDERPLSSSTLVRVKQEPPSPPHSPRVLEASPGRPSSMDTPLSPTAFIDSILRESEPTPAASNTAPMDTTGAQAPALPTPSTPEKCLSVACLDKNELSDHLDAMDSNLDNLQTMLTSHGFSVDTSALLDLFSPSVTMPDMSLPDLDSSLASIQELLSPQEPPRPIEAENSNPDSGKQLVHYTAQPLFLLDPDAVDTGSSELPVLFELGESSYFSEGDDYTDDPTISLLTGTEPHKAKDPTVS
Kind of experiment: enhancement of HSF1-driven luciferase signal – cell-based, NIH3T3, luminescence, dose retest, confirmation (AID 435004).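 Further: stress induced by proteasome inhibitor MG132 added 30 min after compound; luciferase reporter driven by HSF1 response element in NIH3T3 cells; actives raise luminescence as potentiators of the MG132 stress response.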 The format is functional.

Sequence of Dual specificity protein kinase CLK2 (P49760 whole entry): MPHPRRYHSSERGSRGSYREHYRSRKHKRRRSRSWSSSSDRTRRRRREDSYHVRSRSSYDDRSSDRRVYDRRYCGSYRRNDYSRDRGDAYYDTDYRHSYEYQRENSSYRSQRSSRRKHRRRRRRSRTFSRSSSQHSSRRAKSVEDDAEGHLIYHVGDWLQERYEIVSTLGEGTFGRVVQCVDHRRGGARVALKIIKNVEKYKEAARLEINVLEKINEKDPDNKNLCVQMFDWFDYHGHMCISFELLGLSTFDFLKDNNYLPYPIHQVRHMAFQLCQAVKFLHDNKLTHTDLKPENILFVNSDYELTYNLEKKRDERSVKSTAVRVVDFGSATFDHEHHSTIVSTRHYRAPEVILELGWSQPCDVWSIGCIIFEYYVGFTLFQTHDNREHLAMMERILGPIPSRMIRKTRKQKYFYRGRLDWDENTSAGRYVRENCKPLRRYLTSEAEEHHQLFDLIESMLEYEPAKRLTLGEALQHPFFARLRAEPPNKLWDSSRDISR

Take `CS(=O)(=O)c1ccc2c(c1)SC1=NC(=O)/C(=C/c3ccc(O)c(O)c3)C(=N)N12`: the EC50 in experiment [1] is 77.5 µM (active). The IC50 in [2] is 10.4 µM (active).

As to `CN(C)c1ccc(-c2nnc(-c3cccs3)o2)cc1`, the IC50 in experiment [3] was > 49.7 µM (inactive).

With `COc1ccc(C(=O)Nc2n[nH]c3ccc(-c4cn(Cc5ccccc5)nn4)cc23)cc1OC`, the Ki was 0.0631 µM (active) in experiment [4]; 1 µM (active) in experiment [5]; > 3.16 µM (inactive) on Ephrin type-A receptor 2; 0.501 µM (active) in experiment [6]; 0.0126 µM (active) in experiment [7]; 0.631 µM (active) in experiment [8]. The Ki in [9] was 0.02 µM (active); in experiment [10], > 10 µM (inactive); at Focal adhesion kinase 1 it was > 6.31 µM (inactive); in experiment [11] it was 0.1 µM (active); in experiment [12] it was 1.26 µM (active); in experiment [13], 0.2 µM (active). The Ki in experiment [14] was 0.1 µM (active); in experiment [15], 0.0316 µM (active); at Activated CDC42 kinase 1 it was > 3.98 µM (inactive); in experiment [16], 0.501 µM (active).

`CCOC(=O)C(C(=O)OCC)c1cc(Br)c2noc3c2c1C(=O)c1ccccc1-3`: the concentration giving a half-maximal response (EC50) in experiment [17] is 10.2 µM (active); in experiment [18], > 260 µM (inconclusive).

(Values after ChEMBL document CHEMBL1201862, “PubChem BioAssay data set” (2004).)
